52 compounds from article PMC6301270 (MedChemComm, 2018) can be followed below.

Each structure is given as a SMILES string.

The subject of the test is T.b. brucei (strain 427) bloodstream form parasites. The experiment in a line: T.b. brucei single concentration screen (10 μM). The settings on record: Trypanosoma brucei, read-out: T.b.brucei % viability (10 µM).
One may read the viability as a read-out of living cells in per cent, often relative to untreated cells. As to `Cc1nnc(NC(=O)c2cn(-c3ccccc3)nc2-c2ccccc2C)o1` [MMV020320, Cc1oc(NC(=O)c2cn(nc2c3ccccc3C)c4ccccc4)nn1], the viability at 10 µM turned out to be 46%. The result for `COc1ccccc1C(C)NCC(=O)Nc1cc(C(F)(F)F)ccc1Cl` (stereo not shown) [MMV020321, COc1ccccc1C(C)NCC(=O)Nc2cc(ccc2Cl)C(F)(F)F] reads 106%.

Take `CC1CCCN(C(=O)C(C)Nc2cc(Cl)ccc2N2CCOCC2)C1` (stereo not shown) [MMV020388, CC(Nc1cc(Cl)ccc1N2CCOCC2)C(=O)N3CCCC(C)C3]: the viability at 10 µM was determined as 95%. The result for `Cc1ccc(Oc2ccc(NC(=O)CNc3ccccc3N3CCCC3=O)cc2)cc1` [MMV020512, Cc1ccc(Oc2ccc(NC(=O)CNc3ccccc3N4CCCC4=O)cc2)cc1] reads 95%.

For `COc1ccccc1CNC(=O)c1cc(C2CC2)nc2c1cnn2C(C)C` [MMV020517, COc1ccccc1CNC(=O)c2cc(nc3c2cnn3C(C)C)C4CC4], the viability at 10 µM amounted to 93%.

Turning to `Cc1cc2ccccc2n1CC(=O)N1CC(C(=O)N2CCCCC2)Oc2ccccc21` (stereo not shown) [MMV020520, Cc1cc2ccccc2n1CC(=O)N3CC(Oc4ccccc34)C(=O)N5CCCCC5], the viability at 10 µM amounted to 69%.

With `O=C(NC1CC1)c1ccc(N2CCOc3ccc(Cl)cc32)s1` [MMV020537, Clc1ccc2OCCN(c3ccc(s3)C(=O)NC4CC4)c2c1], the viability at 10 µM was determined as 97%. The result for `CC(C)C(NC(=O)Cc1cccc2ccccc12)C(=O)Nc1cccc(C#N)c1` (stereo not shown) [MMV020591, CC(C)C(NC(=O)Cc1cccc2ccccc12)C(=O)Nc3cccc(c3)C#N] reads 93%. Take `Cc1noc(C)c1C(=O)N1CCCC(c2[nH]c3c(C)cccc3c2-c2ccncc2)C1` (stereo not shown) [MMV020623, Cc1onc(C)c1C(=O)N2CCCC(C2)c3[nH]c4c(C)cccc4c3c5ccncc5]: the viability at 10 µM came to 78%. The result for `COc1ccc(-c2cncc3ccc(C(=O)NCCCn4ccnc4)nc23)cc1` [MMV020670, COc1ccc(cc1)c2cncc3ccc(nc23)C(=O)NCCCn4ccnc4] reads 51%; that for `COc1ccc(Cl)cc1NC(=O)CN(C)C(=O)c1cnn(-c2ccccc2)n1` [MMV020710, COc1ccc(Cl)cc1NC(=O)CN(C)C(=O)c2cnn(n2)c3ccccc3], 103%; that for `CC(C)(C)c1cc(C(=O)Nc2cccnc2)cc(C(=O)Nc2cccnc2)c1` [MMV020982, CC(C)(C)c1cc(cc(c1)C(=O)Nc2cccnc2)C(=O)Nc3cccnc3], 83%. With `CO/C=C(/C(=O)OC)c1ccccc1Oc1cc(Oc2ccccc2C#N)ncn1` [MMV021057, CO\C=C(\C(=O)OC)/c1ccccc1Oc2cc(Oc3ccccc3C#N)ncn2] the figure was 103%. Consider `Cc1cc(NCC(C)C)c2n[nH]c(-c3ccccc3)c2n1` [MMV021375, CC(C)CNc1cc(nc2c([nH]nc12)-c1ccccc1)C], for which the viability at 10 µM worked out at 64%. With `Cc1cc(NCCc2ccccc2)nc(NC(=N)Nc2ccc(Cl)cc2)n1` [MMV021660, Cc1cc(NCCc2ccccc2)nc(NC(=N)Nc3ccc(Cl)cc3)n1] the figure was 47%; with `CCN(CC)CCCN1CCN(C(=O)c2cccc(-c3noc(C(F)(F)F)n3)c2)CC1` [MMV022236, CCN(CC)CCCN1CCN(CC1)C(=O)c2cccc(c2)c3noc(n3)C(F)(F)F], 103%; with `c1ccc2c(c1)CN(CC1CC1)CC1(CCN(Cc3c[nH]c4cnccc34)CC1)O2` [MMV023183, C(C1CC1)N2Cc3ccccc3OC4(CCN(Cc5c[nH]c6cnccc56)CC4)C2], 93%. On to `Cc1nc(-c2cccc(NCc3ccccc3)c2)[nH]c1C` [MMV023227, Cc1nc([nH]c1C)c2cccc(NCc3ccccc3)c2], for which the viability at 10 µM was determined as 102%. The result for `Nc1ncc(-c2cn[nH]c2)cc1-c1nc2cc(Cl)cnc2[nH]1` [MMV023370, Nc1ncc(cc1c2nc3cc(Cl)cnc3[nH]2)c4cn[nH]c4] reads 88%.

For the compound `O=C(NC1CCN(c2ccnc3ccccc23)C1)c1cccc(C(F)(F)F)c1` (stereo not shown) [MMV023388, FC(F)(F)c1cccc(c1)C(=O)NC2CCN(C2)c3ccnc4ccccc34], the viability at 10 µM was found to be 78%. With `NS(=O)(=O)c1cccc(-c2ccc3ncc(N4CCOCC4)nc3c2)c1` [MMV023860, NS(=O)(=O)c1cccc(c1)c2ccc3ncc(nc3c2)N4CCOCC4] the figure was 110%; with `CC(C)(C)c1cc(C(=O)N2CCN(c3nccnc3C#N)CC2)n(Cc2ccccc2)n1` [MMV023949, CC(C)(C)c1cc(C(=O)N2CCN(CC2)c3nccnc3C#N)n(Cc4ccccc4)n1], 115%; with `O=C(Nc1cccc(-c2ccc(NCCCN3CCCC3)nc2)c1)c1ccccc1` [MMV023953, O=C(Nc1cccc(c1)c2ccc(NCCCN3CCCC3)nc2)c4ccccc4], 57%.

`c1cncc(NCc2ccc(-c3cc4ccncc4cc3OC3CCNCC3)s2)c1` [MMV023969, C(Nc1cccnc1)c2ccc(s2)c3cc4ccncc4cc3OC5CCNCC5]: the viability at 10 µM came out at 79%. With `COc1ccc(-c2cnc3ccc(N4CCCC4)nn23)cc1OC` [MMV023985, COc1ccc(cc1OC)c2cnc3ccc(nn23)N4CCCC4] the figure was 91%; with `NS(=O)(=O)c1cncc(-c2ccc3nccc(-c4cn[nH]c4)c3n2)c1` [MMV024101, NS(=O)(=O)c1cncc(c1)c2ccc3nccc(c4cn[nH]c4)c3n2], 36%; with `Cc1ccc(S(=O)(=O)n2cc(-c3ccnc(N)c3)c3cc(Br)cnc32)cc1` [MMV024114, Cc1ccc(cc1)S(=O)(=O)n2cc(c3ccnc(N)c3)c4cc(Br)cnc24], 52%.

In the case of `CN(C)CCNC(=O)N1CCCN(c2ncnc3cc(-c4ccccc4)sc23)CC1` [MMV024195, CN(C)CCNC(=O)N1CCCN(CC1)c2ncnc3cc(sc23)c4ccccc4], the viability at 10 µM turned out to be 79%. The result for `O=C(NC1CC1)c1ccc(N2CCC(Cc3ccccc3)CC2)nc1` [MMV024397, O=C(NC1CC1)c2ccc(nc2)N3CCC(Cc4ccccc4)CC3] reads 72%; that for `O=C(Nc1cccc(Cl)c1)c1cnc(N2CCN(c3ccncc3)CC2)c(Cl)c1` [MMV024406, Clc1cccc(NC(=O)c2cnc(N3CCN(CC3)c4ccncc4)c(Cl)c2)c1], 63%; that for `CN(C(=O)c1cc2c(-c3cncnc3)cccc2[nH]1)c1ccccc1` [MMV024443, CN(C(=O)c1cc2c(cccc2[nH]1)c3cncnc3)c4ccccc4], 59%. The result for `Cc1cccc(C(=O)Nc2ccnc(N(C)C3CCN(CC(C)C)CC3)c2)c1` [MMV024829, CC(C)CN1CCC(CC1)N(C)c2cc(NC(=O)c3cccc(C)c3)ccn2] reads 56%; that for `O=C(Nc1ccc(N2CCNCC2)nc1)c1oc(-c2ccccc2)nc1C(F)(F)F` [MMV024937, FC(F)(F)c1nc(oc1C(=O)Nc2ccc(nc2)N3CCNCC3)c4ccccc4], 77%; that for `CS(=O)(=O)c1cccc(-c2cnc3[nH]cc(-c4ccc(CCC(=O)O)cc4)c3c2)c1` [MMV026020, CS(=O)(=O)c1cccc(c1)c2cnc3[nH]cc(c4ccc(CCC(=O)O)cc4)c3c2], 61%.

Take `Nc1nccc2ccc(Oc3ccncc3)cc12` [MMV026313, Nc1nccc2ccc(Oc3ccncc3)cc12]: the viability at 10 µM turned out to be 97%. Take `CCn1ncc2c(NC3CCOCC3)c(CNC(=O)c3ccnn3C)c(C)nc21` [MMV026356, CCn1ncc2c(NC3CCOCC3)c(CNC(=O)c4ccnn4C)c(C)nc12]: the viability at 10 µM amounted to 80%. Regarding `OCc1ccc(-c2cncc(Nc3cccc(Cl)c3)c2)cc1` [MMV026468, OCc1ccc(cc1)c2cncc(Nc3cccc(Cl)c3)c2], the viability at 10 µM came to 88%. Turning to `CC(C)(C)CN1C(=O)C(c2ccccc2)(c2ccccc2)N=C1N` [MMV026550, CC(C)(C)CN1C(=NC(C1=O)(c2ccccc2)c3ccccc3)N], the viability at 10 µM was determined as 104%. `CC(C)(CN)c1nc(-c2ccc(Cl)c(O)c2)c(-c2ccnc(N)n2)[nH]1` [MMV030734, CC(C)(CN)c1nc(c2ccc(Cl)c(O)c2)c([nH]1)c3ccnc(N)n3]: the viability at 10 µM was determined as 33%. The result for `CNC(=O)C1Cc2c([nH]c3cc(Cl)ccc23)C2(CCN(CCc3ccccc3)CC2)N1` (stereo not shown) [MMV031011, CNC(=O)C1Cc2c([nH]c3cc(Cl)ccc23)C4(CCN(CCc5ccccc5)CC4)N1] reads 106%. As to `FC(F)(F)c1cccc(-c2nc3c(NCc4ccncc4)nccc3[nH]2)c1` [MMV032967, FC(F)(F)c1cccc(c1)c2nc3c(NCc4ccncc4)nccc3[nH]2], the viability at 10 µM turned out to be 79%. The result for `O=C1COCc2ccc(Br)cc2N1Cc1ccc(C(F)(F)F)cc1` [MMV032995, FC(F)(F)c1ccc(CN2C(=O)COCc3ccc(Br)cc23)cc1] reads 113%; that for `c1ccc(Oc2ccc(-c3cc(N4CCOCC4)[nH]n3)cc2)cc1` [MMV045105, C1CN(CCO1)c2cc(n[nH]2)c3ccc(Oc4ccccc4)cc3], 33%; that for `COc1cc(C(F)(F)F)nc2ccc(C)c(N)c12` [MMV047015, COc1cc(nc2ccc(C)c(N)c12)C(F)(F)F], 113%. Turning to `N#Cc1ccc(-c2ccc(OCC(N)=O)cc2)cc1` [MMV053220, NC(=O)COc1ccc(cc1)c2ccc(cc2)C#N], the viability at 10 µM stood at 68%. The result for `CC(=O)N1CCc2cc3nc(C)cc(C)c3cc21` [MMV054312, CC(=O)N1CCc2cc3nc(C)cc(C)c3cc12] reads 91%; that for `Cc1cc(C)nc(-n2nc(C)cc2Nc2ccccc2)n1` [MMV062221, Cc1cc(C)nc(n1)n2nc(C)cc2Nc3ccccc3], 103%; that for `Cc1nn(Cc2ccccc2)c(Cl)c1C(=O)NC1CCCCCC1` [MMV063404, Cc1nn(Cc2ccccc2)c(Cl)c1C(=O)NC3CCCCCC3], 96%. As for `FC(F)(F)c1nnc2ccc(Cl)nn12` [MMV069458, FC(F)(F)c1nnc2ccc(Cl)nn12], the viability at 10 µM was 100%. With `O=C1N(Cc2cc3ccccc3s2)CC2CN(Cc3ccccc3)CCN12` (stereo not shown) [MMV084603, O=C1N(Cc2cc3ccccc3s2)CC4CN(Cc5ccccc5)CCN14] the figure was 99%; with `O=C(Nc1cnc2ccccc2c1)c1cccc(-n2cnnn2)c1` [MMV084864, O=C(Nc1cnc2ccccc2c1)c3cccc(c3)n4cnnn4], 80%; with `COc1cncc(-c2cncc(N3CCN(c4ccncc4)CC3)n2)c1` [MMV085071, COc1cncc(c1)c2cncc(n2)N3CCN(CC3)c4ccncc4], 79%.
